According to patent US4889860A (Nova Pharmaceutical Corporation, priority 1987, dated 1989):
Like-named read-outs stand apart in the source and are kept apart here.

How the values were obtained:
[1] = tested on: bombesin-induced scratching; assay: bombesin-induced scratching test; type: in vivo; conditions: sc; subcutaneous; read-out: mean A50, bombesin-induced scratching
Description: (Cowan A. Trendsin Pharmacology Science, 7:69-72, 1986) With this test the intracerebroventricular administration of bombesin produces a characteristic scratching response.

mu-type opioid receptor = target: T1, mu-type opioid receptor (Rattus norvegicus, UniProt P33535); assay: inhibition of specific [^3 H] DAGO binding to rat forebrain membranes
T1 construct: using rat forebrain membranes; from tissue; host or cells: rat forebrain membranes
T1 sequence (P33535 whole entry): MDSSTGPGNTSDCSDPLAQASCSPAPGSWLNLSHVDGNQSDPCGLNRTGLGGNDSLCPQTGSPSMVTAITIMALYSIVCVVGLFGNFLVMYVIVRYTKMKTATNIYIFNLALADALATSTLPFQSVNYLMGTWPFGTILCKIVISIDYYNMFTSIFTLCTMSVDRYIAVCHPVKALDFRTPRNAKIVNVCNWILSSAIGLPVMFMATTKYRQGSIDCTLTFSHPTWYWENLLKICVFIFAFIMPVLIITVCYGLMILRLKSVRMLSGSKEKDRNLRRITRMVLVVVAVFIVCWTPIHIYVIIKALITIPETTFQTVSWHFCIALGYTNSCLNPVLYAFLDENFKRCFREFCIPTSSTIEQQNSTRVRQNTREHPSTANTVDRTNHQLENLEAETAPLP
Experimental: (§1) The interaction of some of the novel compounds with mu and delta-type opioid receptors present in brain membranes was examined in vitro. […] DAGO (mu-type receptor) or [^3 H] DADLE (delta-type receptor) was determined using rat forebrain membranes. Computer assisted analysis (EBDA) was used to determine apparent Ki values for the various compounds.
(§2) Values represent the MEAN±S.E.M. of the Ki(nM) for each compound to inhibit specific binding of the indicated ligand to rat brain membranes. The values are from two-five separate experiments and were calculated according to the method of Cheng and Prusoff [Biochem. Pharmacol. 1973, 22, 3099-3108] together with the EBDA Program. Numbers in parentheses are the mean Hill coefficients for each compound to inhibit ligand binding.
as §2, with “two.div.seven” for “two-five”, “Prusoff” for “Prusoff [Biochem. Pharmacol. 1973, 22, 3099-3108]”, “program.” for “Program.”, “binding. N.D.=not determined” for “binding.”
(§3) The interaction of some of the novel compounds with mu, delta and kappa - type opioid receptors present in brain membranes was examined in vitro. […] DAGO (mu-type receptor), or [^3 H] DADLE (Delta-type receptor) using rat forebrain membranes and [^3 H] EKC (kappa-type receptor) using guiniea pig cerebellum membrane was determined. Computer assisted analysis (EBDA) was used to determine apparent Ki values for the various compounds.
(§4) The values represent the MEAN±S.E.M. of the Ki(nM) for each compound to inhibit specific binding of the indicated ligand. Each value represents the mean of three individual experiments performed on separate occasions.

[2] = target: delta-type opioid receptor (Rattus norvegicus, UniProt P33533); assay: inhibition of specific [^3 H] DADLE binding to rat forebrain membranes
delta-type opioid receptor, sequence (P33533 whole entry): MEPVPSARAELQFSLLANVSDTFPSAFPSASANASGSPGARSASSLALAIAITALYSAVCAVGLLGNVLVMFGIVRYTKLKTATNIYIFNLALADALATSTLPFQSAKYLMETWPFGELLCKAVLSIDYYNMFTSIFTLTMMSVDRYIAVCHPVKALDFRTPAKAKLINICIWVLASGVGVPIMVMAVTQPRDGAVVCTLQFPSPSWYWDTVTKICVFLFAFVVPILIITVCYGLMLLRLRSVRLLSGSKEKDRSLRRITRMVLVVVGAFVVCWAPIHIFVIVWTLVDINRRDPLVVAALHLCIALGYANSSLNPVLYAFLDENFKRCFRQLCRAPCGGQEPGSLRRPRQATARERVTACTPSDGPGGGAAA
Experimental: as §1, §2
as §2, with “two.div.seven” for “two-five”, “Prusoff” for “Prusoff [Biochem. Pharmacol. 1973, 22, 3099-3108]”, “program.” for “Program.”, “binding. N.D.=not determined” for “binding.”
as §3, §4

tail flick response = assay: radiant heat tail flick analgesia in rats; type: in vivo, rat; conditions: for ED50: Rattus norvegicus; for dose producing approximately equal analgesia: tail flick, through 3.5 hr
Experimental: The analgesic properties of the compounds prepared in accordance with Examples III and IV were evaluated in rats using the radiant heat and tail flick paradigm. […] Flick latencies in FIGS. 11-13 were determined at 30 minute intervals through 3.5 h and the data was expressed as a percentage of the maximum possible effect (% MPE). A 15 sec. cut-off latency was used to minimize tissue damage. The values shown are the mean values for 6 rats.
(§5) A 15 sec. cut-off latency was used to prevent tissue damage.
The analgesic properties of compounds XXII and XXIII were evaluated in rats using the writhing assay and tail flick paradigm. […] The writhing assay which uses a chemical stimulus to produce pain, is believed to be more sensitive to kappa agonist activity than other measures of analgesia which uses a heat stimulus (Dykstra, L.A. Behavioral Pharmacology: The Current Status, N.Y.: Allan R. Liss. Inc. 1985).

[3] = deaths of rats during tail flick experiment at high doses; conditions: S.C.
Description: as §5

[4] = target: T2, kappa-type opioid receptor (Cavia porcellus, UniProt P41144); assay: inhibition of specific [^3 H] EKC binding to guinea pig cerebellum membrane; conditions: than other compounds or naltrexone
T2 construct: using guiniea pig cerebellum membrane; from tissue; host or cells: guinea pig cerebellum membranes
T2 sequence (P41144 whole entry): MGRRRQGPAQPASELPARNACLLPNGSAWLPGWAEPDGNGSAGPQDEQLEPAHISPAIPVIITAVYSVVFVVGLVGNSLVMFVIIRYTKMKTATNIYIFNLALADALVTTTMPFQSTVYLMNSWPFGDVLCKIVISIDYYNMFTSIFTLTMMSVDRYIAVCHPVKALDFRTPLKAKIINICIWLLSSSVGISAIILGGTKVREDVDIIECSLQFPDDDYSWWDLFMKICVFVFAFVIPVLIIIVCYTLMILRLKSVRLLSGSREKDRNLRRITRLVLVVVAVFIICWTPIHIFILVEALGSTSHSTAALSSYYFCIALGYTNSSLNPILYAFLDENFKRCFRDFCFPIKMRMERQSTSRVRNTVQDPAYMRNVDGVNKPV
Experimental: as §3, §4

writhing response = assay: animal or person; type: in vivo, mouse
[5] = conditioned taste aversion in rats; type: in vivo, rat; conditions: I.P., day 10
Experimental: The ability of a compound to inhibit feeding may not be related to its anorectic properties, but rather to the ability of that compound to produce a conditioned taste aversion. This possibility was tested in the following experiment. Animals were adapted to water deprivation by restricting their access to water to a single 30 min presentation occurring at the same time every day. Baseline water intakes were determined for 7 days until intakes had stabilized, and animals were assigned to treatment groups based on their intakes on the final baseline day. On the following day (day 8), all rats received a bottle of condensed milk (diluted 2:1 water:milk) in place of the water, and intakes were recorded for 30 min. Fifteen minutes after the milk was removed, rats were administered an I.P. injection of vehicles, LiCl (299.6 μmol/kg) or the compound of Example XII (1.15, 2.31, 11.55 and 23.09 μmol/kg). The compound of Example XII was dissolved in 0.3% acetic acid in a volume of 4 ml/kg. LiCl was dissolved in saline, and serves as a positive control, since it is a compound that reliably produces a strong conditioned taste aversion. This procedure was repeated on day 9. On day 10, all rats were given a two-bottle choice of water or the milk:water solution, and intakes were recorded for 30 min. Data for each experiment were analyzed by one-way ANOVA, and post-hoc comparisons were performed using Dunnett's test.
The effects of the compound of Example XII in producing a conditioned taste aversion are illustrated in FIGS. 28 and 29. In FIGS. 28 and 29 the data represent the mean ±SEM for each group. **=p<0.01 (Dunnett's test). Abbreviations: SAL, saline; AA, 0.3% acetic acid in distilled water; LiCl, lithium chloride. Doses of the compound of Example XII for each group are expressed in μmole/kg. The number of animals per group: SAL, 4: AA, LiCl and each dose of Example XII, 5. FIG. 28: Total milk intake in ml on day 10. FIG. 29: Preference ratio on day 10.

[6] = 1 and 2 mg/kg; cited from earlier work
[7] = Simone et al.; cited from earlier work
[8] = Ki, inhibition of specific [^3 H] DAGO binding, Tables 1 and 2, rat brain membranes, MEAN±S.E.M.
[9] = read-out: Ki, inhibition of specific [^3 H] DADLE binding, Tables 1 and 2, rat brain membranes, MEAN±S.E.M.
[10] = sc, 0.5 h, S.C., 30 min, read-out: ED50, tail flick analgesia

Oc1ccc2c3c1O[C@H]1C(=NOCCCc4ccccc4)CC[C@@]4(O)[C@@H](C2)N(CC2CC2)CC[C@]314 [6[3-phenylpropyl] oximino naltrexone]
ED50 [1]: 0.08 mg/kg

CN1CC[C@]23c4c5ccc(O)c4O[C@H]2C(=NOCc2ccccc2)CC[C@@]3(O)[C@H]1C5 [Example III, 6-Benzyloximino-17-methyl-4,5 α-epoxy-3, 14-dihydroxymorphinan]
Ki (mu-type opioid receptor; [8]): 1.58 ± 0.07 nM | Ki [2, 9]: 2.8 ± 1.6 nM | ED50 (tail flick response; [10]): 0.64 µmol/kg | dose producing approximately equal analgesia (tail flick response; S.C.): ~2.21 µmol/kg | number of deaths out of six rats ([3]; 8.85 μmole/kg): 1 | number of deaths out of six rats ([3]; 17.7 μmole/kg): 3 | number of deaths out of six rats ([3]; 26.6 μmole/kg): 3

CN1CC[C@]23c4c5ccc(O)c4O[C@H]2C(=NOc2ccccc2)CC[C@@]3(O)[C@H]1C5 [Example IV, 6-Phenyloximino-17-methyl-4,5 α-epoxy-3, 14-dihydroxymorphinan]
Ki (mu-type opioid receptor; [8]): 0.84 ± 0.09 nM | Ki [2, 9]: 0.91 ± 0.1 nM | ED50 (tail flick response; [10]): 0.18 µmol/kg | dose producing approximately equal analgesia (tail flick response; S.C.): ~1.12 µmol/kg | number of deaths out of six rats ([3]; 4.48 μmole/kg): 1 | number of deaths out of six rats ([3]; 8.95 μmole/kg): 1 | number of deaths out of six rats ([3]; 13.4 μmole/kg): 2

Oc1ccc2c3c1O[C@H]1C(=NOCCCc4ccccc4)CC[C@@]4(O)[C@@H](C2)N(CC2CC2)CC[C@]314 [Example XXIII]
Ki (mu-type opioid receptor; read-out: (Ki) nM, μ receptor (Rat Forebrain), Table 6, [^3 H] DAGO, mean of three experiments): 0.32 nM | Ki ([2]; read-out: (Ki) nM, δ receptor (Rat Forebrain), Table 6, [^3 H] DADLE, mean of three experiments): 0.44 nM | fold more potent to inhibit specific [3H]EKC [4]: 100 fold | ED50 (tail flick response; Table 7, read-out: ED50, Antagonism of the Tail-Flick Response in the Rat): 1.84 mg/kg | antagonism of tail-flick response to heat (tail flick response; rat): effectively antagonized the tail-flick response to a heat stimulus in the rat | ED50 (writhing response; Mus musculus, Table 7, read-out: ED50, Acetic Acid Induced Writhing in the Mouse): 0.02 mg/kg | potency versus morphine to antagonize writhing response (writhing response; mouse, in vivo, ip): more potent than morphine to antagonize the writhing response | kappa selectivity and agonist activity (writhing response; writhing and tail flick): selective to kappa receptors and possess kappa agonist activity

[Cl-].[Li+] [LiCl, lithium chloride, reference compound]
conditioned taste aversion (milk intake, preference ratio) [5]: significant decreases in milk intake and in the preference ratio were evident only for LiCl

COC(=O)CON=C1CC[C@@]2(O)[C@H]3Cc4ccc(OC)c5c4[C@@]2(CCN3CC2CC2)[C@H]1O5 [N-cyclopropylmethyl-nor-14-hydroxydihydrocodeinone-6-carboxymethyl methyl ester]
suppression of symptoms in morphine dependent monkeys [6]: partial suppression of symptoms was obtained

C=CCN1CC[C@]23c4c5ccc(O)c4O[C@H]2/C(=N/N=C2\CC[C@@]4(O)[C@H]6Cc7ccc(O)c8c7[C@@]4(CCN6CC=C)[C@H]2O8)CC[C@@]3(O)[C@H]1C5 [naloxonazine]
inhibition of overnight feeding [7]: inhibition of overnight feeding
